Test results: patent US20090176711A1, “INHIBITORS OF AMYLOID PRECURSOR PROTEIN PROCESSING” (priority 2008, published 2009)

Key:
[1] = system: Substrate M (Sub M, SEVNLDAEFR; β-secretase cleavage site of APPsw); assay: Binding of biotin-labeled Substrate M to immobilized complementary (HC) peptides; settings: substrate not specified
Experimental: Complementary peptides (0.2, 2, 20, and 200 μM) were dissolved in phosphate buffered saline (PBS) (pH 7.4) and fixed to microtiter wells for 5 hr at 37° C. The wells were blocked with blocking buffer (3% BSA/PBS) for 1 hr at 37° C. Either N-terminally biotinylated Substrate W or M (20 μM) in blocking buffer was added and incubated for overnight at 4° C. Streptavidin-horseradish peroxidase in blocking buffer was added to detect resulting bound substrates. The plate was incubated for 2 hr at room temperature (RT), followed by addition of 3,3′,5,5′-tetramethyl-benzidine (TMB) as substrate for horseradish peroxidase for color reaction.
(§1) Reacti-Bind™ maleic anhydride-activated polystyrene plate (Pierce, IL, USA) was coated with 50 μl of HC peptide (200 μM in distilled water) by chemical coupling for 3 h at room temperature (RT) and washed three times with phosphate buffered saline (PBS) containing 0.05% tween 20 (PBST). The plate was blocked with blocking buffer (0.5% gelatin in PBS) for 1 h at RT. After discarding blocking buffer, biotinylated BACE1 substrates (200 μM) in blocking buffer was applied on the plate and incubated for 2.5 h at RT. Each well was washed three times with PBST. The bound biotinylated BACE1 substrates were detected by incubation with streptavidin-horseradish peroxidase (Str-HRP, 125 mU/ml in blocking buffer) for 2 h at RT. Color reaction was carried out with 50 μl of 3,3′,5,5′-Tetramethylbenzidine Liquid Substrate (Sigma-Aldrich, MO, USA). After stopping the reaction by addition of an equal volume of 1 N HCl, absorbance at 450 nm was read in an automated ELISA reader (EL 312e, Bio-Tek Instruments, VT, USA). All assays were carried out in duplicate.

[2] = biological target: T1, cleavage of Sub-ST6Ga11 by rhBACE1 (Rattus norvegicus, UniProt P13721); assay: HPLC analysis of the cleavage of Sub-ST6Ga11 by rhBACE1; format: biochemical, human; settings: up to 10 inhibitor/substrate ratio, Sub-ST6Ga11 50 μM, 500 nM enzyme
T1 construct: 19 amino acid region (DYEALTL/QAKEFQMPKSQE) that contains the β-cleavage site for investigation was chosen; purchased A&Pep Co., Inc. (non-labelled peptides); R&D Systems (rhBACE1)
Description: One of the advantages of the APP inhibitor described in the present invention is that it is a peptide or a mimetic that bind to the β-secretase cleavage site of APP, thus not affecting other β-secretase substrates. To confirm the specificity of the inventive APP inhibitor, two different types of substrates were used, APP Sub M and ST6Ga11. Both substrates are cleaved by β-secretase under normal conditions and the effect of the inventive APP inhibitor on the substrate cleavage was monitored by HPLC (See the schematic diagram in FIG. 16.) To carry out these experiments, the concentration of β-secretase required for cleavage of both substrates was determined as shown in FIG. 17. For substantial cleavage of ST6Ga11 substrate, 420 nM of the enzyme was required. Therefore, 420 nM of β-secretase was used for the following experiment.
Various concentrations of HC peptide were preincubated with either Sub M (50 μM) or Sub-ST6Ga11 (50 μM, DYEALTLQAKEFQMPKSQE) peptide corresponding to the β-cleavage site of ST6Ga11 for 2 h at RT. The mixtures containing Sub M was treated with 50 nM of rhBACE1 and that containing Sub-ST6Ga11 was treated with 500 nM enzyme for 12 h at RT. Roughly 50% of each BACE1 substrate was cleaved in the absence of HC peptide. The cleavage products were separated on a C18 reversed-phase HPLC column as described above.

[3] = biological target: T2, Sub-ST6Ga11 (DYEALTLQAKEFQMPKSQE) (Rattus norvegicus, UniProt P13721); assay: Binding of bio-Sub-ST6Ga11 to immobilized HC peptide; settings: HC peptide chemically coupled on microtiter plate
T2 construct: 19 amino acid region (DYEALTL/QAKEFQMPKSQE) that contains the β-cleavage site for investigation was chosen; purchased Peptron, Inc; host or cells: chemical synthesis
Experimental: as §1
It was investigated if HC peptide would show specificity for APP in terms of the inhibition of cleavage by BACE1. ST6Ga11 is also cleaved by BACE1. For this experiment, 19 amino acid region (DYEALTL/QAKEFQMPKSQE) that contains the β-cleavage site for investigation was chosen. The 19 amino acid peptide was designated as Sub-ST6Ga11. […]

[4] = system: cleavage of Substrate M by β-secretase; assay: Inhibition of cleavage of Substrate M by β-secretase by complementary and deletion peptides (Examples 1, 5, 6; assay format not stated); format: biochemical; settings: various concentrations, Substrate M (FIG. 8)
Experimental: So far we have focused on c-Sub M peptide. Serial deletions were made from N-terminus or C-terminus of c-Sub M (FIG. 5), and we investigated effect of the deletions on the cleavage of Substrate M. The optimum peptide/substrate ratio for inhibition on the cleavage of substrate was determined by observing the inhibition percentage at various peptide/substrate ratios (FIG. 4). Subsequently, the inhibitory activity of the deletion peptides were tested at 10 inhibitor/substrate ratio and the concentration of the Substrate M was 50 μM. Deletion of the first two amino acids from the N-terminus had little effect on the activity and deletion of five amino acids from the C-terminus of c-Sub M had little effect on the inhibitory activity (FIG. 6). Further deleted peptides were tested for inhibitory activity on the cleavage of Substrate M (FIG. 7).
The above-mentioned peptides that have inhibitory activity were tested at various concentrations for their inhibitory activities on their mutant substrate Substrate M (FIG. 8).

[5] = system: APP processing in HEK293-APP cells; assay: APP inhibitor activity on HEK293-APP cells (βCTF Western blot); format: cell-based, human; settings: γ-secretase inhibitor and cholesterol added
Experimental: In the neuronal cells of the brain, APP is processed by α-secretase or β-secretase. To investigate the effects of the inhibitors on the cell, a cell based assay system was developed as described in FIG. 10. C-terminal fragment of APP remaining on the cell membrane was detected by Western blot. The resulting C-terminal fragments, αCTF or βCTF are further processed by γ-secretase. However, if the cells are treated with the γ-secretase inhibitor, this processing is blocked. As a result, αCTF or βCTF accumulate in the cell. If β-secretase inhibitor or APP inhibitor is added, this processing is blocked and βCTF disappears.
In addition, γ-secretase inhibitor and cholesterol were added to the cells to increase βCTF level. Commercially available peptide-based β-secretase inhibitor was included as control (Lane 6, FIG. 11). To detect the N-terminal fragment of β-amyloid which is a product of APP processing, 6E10 antibody was employed. […] Recently, it has been reported that the commercially available peptide-based inhibitor had to be linked to an oligoarginine transporter peptide to have inhibitory activity against cells. Therefore, mimetic approach is adopted to produce cell permeable analogs. (Chang et al. J. Neurochemistry 2004; 89:1409-1416).
After confirming the ability of the oligo-arginine coupled APP inhibitors to enter the cells, the inhibitors were applied to HEK293-APP cells overexpressing APP to test their inhibitory activities on APP processing. […] This inhibitor started to show significant inhibitory activity beginning from 0.1 μM (lower panel).

## EFCIQIHF [c-Sub M ΔN1C1]
[1]
  absorbance in binding test: high absorbance
[2]
  inhibition of cleavage of Sub-ST6Ga11 by rhBACE1: about 10%
[3]
  binding of bio-Sub-ST6Ga11: also bound
[4]
  concentration dependent inhibitory activity, activity group: most active group
[5]
  inhibitory activity on APP processing (βCTF): none of the inhibitors tested showed inhibitory activity
